Data as given in the supplement of paper PMC10307832.

Key:
Test in all cases: relative viability (nuclei count vs DMSO), 5 days (fraction); higher = more cells survive
[1] = compound: CS(=O)(=O)c1ccc(-c2cnc(N)c(C(=O)Nc3ccccc3)n2)cc1 [VE-821] + C[C@@H](Oc1cc(-c2cnn(C3CCNCC3)c2)cnc1N)c1c(Cl)ccc(F)c1Cl [Crizotinib] (partner 1 µM)
How it was run: (§1)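 One day after seeding in 1536-well plates, lung cancer cell lines were dosed by pin tool. Dosing was either single-drug or a fixed anchor-drug dose plus five library-drug doses (not always all listed) in √10 steps. After 5 days, nuclei were stained in one fix-and-stain step and counted on 4× images, and relative viability is the nuclei count of treated wells over that of vehicle wells, given as the median of duplicate plates.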

[2] = compound: CS(=O)(=O)c1ccc(C(=O)Nc2ccc(Cl)c(-c3ccccn3)c2)c(Cl)c1 [Vismodegib] + O=C(c1cc(Cc2n[nH]c(=O)c3ccccc23)ccc1F)N1CCN(C(=O)C2CC2)CC1 [Olaparib] (partner 8 µM)
How it was run: as §1

[3] = compound: CS(=O)(=O)c1ccc(C(=O)Nc2ccc(Cl)c(-c3ccccn3)c2)c(Cl)c1 [Vismodegib] + CS(=O)(=O)N1CCN(Cc2cc3nc(-c4cccc5[nH]ncc45)nc(N4CCOCC4)c3s2)CC1 [Pictilisib] (partner 1 µM)
How it was run: as §1

[4] = compound: CS(=O)(=O)c1ccc(-c2cnc(N)c(C(=O)Nc3ccccc3)n2)cc1 [VE-821] + CC(=O)Nc1cccc(-n2c(=O)n(C3CC3)c(=O)c3c(Nc4ccc(I)cc4F)n(C)c(=O)c(C)c32)c1 [Trametinib] (partner 0.02 µM)
How it was run: as §1

Cell Line | relative viability ([1]; first compound 0.08 µM) | relative viability ([1]; first compound 0.253 µM) | relative viability ([1]; first compound 0.8 µM) | relative viability ([1]; first compound 2.53 µM) | relative viability ([1]; first compound 8 µM) | relative viability ([2]; first compound 0.08 µM) | relative viability ([2]; first compound 0.253 µM) | relative viability ([2]; first compound 0.8 µM) | relative viability ([2]; first compound 2.53 µM) | relative viability ([2]; first compound 8 µM) | relative viability ([3]; first compound 0.08 µM) | relative viability ([3]; first compound 0.253 µM) | relative viability ([3]; first compound 0.8 µM) | relative viability ([3]; first compound 2.53 µM) | relative viability ([3]; first compound 8 µM) | relative viability ([4]; first compound 0.08 µM) | relative viability ([4]; first compound 0.253 µM) | relative viability ([4]; first compound 0.8 µM) | relative viability ([4]; first compound 2.53 µM) | relative viability ([4]; first compound 8 µM)
HOP-62 | 0.955 | 0.885 | 0.754 | 1.03 | 0.902 | 0.403 | 0.47 | 0.387 | 0.396 | 0.345 | 0.751 | 0.703 | 0.759 | 0.815 | 0.656 | 0.402 | 0.413 | 0.351 | 0.403 | 0.429
LCLC-97TM1 | 0.537 | 0.381 | 0.413 | 0.632 | 0.174 | 0.355 | 0.416 | 0.439 | 0.298 | 0.565 |  |  | 0.125 |  | 0.158 | 0.225 | 0.152 | 0.194 | 0.227 | 0.217
NCI-H3122 | 0.283 | 0.281 | 0.32 | 0.356 | 0.331 | 0.613 | 0.598 | 0.614 | 0.664 | 0.65 | 0.548 | 0.599 | 0.553 | 0.696 | 0.565 | 0.219 | 0.216 | 0.235 | 0.228 | 0.265
PC-14 | 1.06 | 0.846 | 0.856 | 0.916 | 0.877 | 0.262 | 0.175 | 0.254 | 0.248 | 0.254 | 0.492 | 0.576 | 0.792 | 0.541 | 0.821 | 0.966 | 0.689 | 0.656 | 0.63 | 0.429
NCI-H2170 | 1.29 | 1.26 | 1.11 | 0.655 | 0.776 | 0.624 | 0.549 | 0.657 | 0.581 | 0.584 | 0.301 | 0.286 | 0.306 | 0.347 | 0.325 | 0.977 | 0.865 | 0.947 | 0.819 | 0.629
NCI-H1650 | 1.03 | 1.08 | 0.896 | 0.873 | 0.478 | 0.896 | 0.633 | 0.763 | 0.794 | 0.746 | 0.557 | 0.587 | 0.558 | 0.529 | 0.639 | 0.869 | 0.453 | 0.668 | 0.586 | 0.402
HCC-366 | 0.792 | 0.428 | 0.403 | 0.337 | 0.045 | 0.343 | 0.364 | 0.378 | 0.431 | 0.372 | 0.16 | 0.17 | 0.148 | 0.137 | 0.131 | 0.38 | 0.381 | 0.293 | 0.13 | 0.0642
HARA | 1.36 | 1.07 | 1.06 | 1.07 | 0.903 | 0.786 |  | 0.945 | 0.856 | 0.943 | 0.472 | 0.423 | 0.417 | 0.396 | 0.448 | 0.686 | 1.08 | 0.553 | 0.767 | 0.608
